Active and inactive are the calls of the source. No cut-off for these calls is given here.
Columns and labels:
[1] = target: T1, von Hippel-Lindau disease tumor suppressor/Serine/threonine-protein kinase PAK 1 (Homo sapiens, UniProt Q13153+P40337); assay: PROTAC activity at VHL/PAK1 in human MDA-MB-231 cells assessed as fold change in protein expression at 2.5 uM incubated for 48 hrs by Western blot analysis relative to control; format: cell-based
MDA-MB-231 [2] = assay: Induction of apoptosis in human MDA-MB-231 cells assessed as viable cells at 2.5 to 10 uM incubated for 12 hrs by Annexin V-FITC/PI staining based flow cytometry (reference value: 94.8 %); format: functional; settings: dose 2.5-10 µM
MDA-MB-231 [3] = assay: Inhibition of cell migration in human MDA-MB-231 cells at 2.5 uM incubated for 24 hrs by transwell assay; format: functional, cell-based
MDA-MB-231 [4] = assay: Inhibition of cell proliferation of human MDA-MB-231 cells xenografted in BALB/c mouse assessed as reduction in Ki-67 level at 20 mg/kg, ip qd for 12 days by IHC analysis; format: functional, organism-based; settings: time 12.0 day
MDA-MB-231 [5] = assay: Antitumor activity against human MDA-MB-231 cells xenografted in BALB/c mouse assessed as reduction in tumor volume at 20 mg/kg, ip qd for 12 days; format: functional, organism-based; settings: time 12.0 day
[6] = target: T2, Serine/threonine-protein kinase PAK 1 (Homo sapiens, UniProt Q13153); assay: Inhibition of PAK1 phosphorylation at S199 in human MDA-MB-231 cells incubated upto 48 hrs by Western blot analysis; format: cell-based
MDA-MB-231 [7] = assay: Induction of apoptosis in human MDA-MB-231 cells assessed as increase in Bax level at 2.5 to 10 uM incubated upto 48 hrs by Western blot analysis; format: functional, cell-based; settings: dose 2.5-10 µM
[8] = target: T2, Serine/threonine-protein kinase PAK 1; assay: Induction of thermal stability of PAK1 in human MDA-MB-231 cells at 10 uM under 37 to 67 degreeC heat exposure by CETSA; format: cell-based
MDA-MB-231 [9] = assay: Inhibition of formation of human MDA-MB-231 cells tumor sphere by crystal violet staining based analysis; format: functional, cell-based; settings: time <= 48.0 hrs, TDE = time-dependent effect
MDA-MB-231 [10] = assay: Antitumor activity against human MDA-MB-231 cells xenografted in BALB/c mouse assessed as reduction in tumor weight at 20 mg/kg, ip qd for 12 days; format: functional, organism-based; settings: time 12.0 day
MDA-MB-231 [11] = assay: Induction of apoptosis in human MDA-MB-231 cells assessed as increase in cleaved caspase-3 level at 2.5 to 10 uM incubated upto 48 hrs by Western blot analysis; format: functional, cell-based; settings: dose 2.5-10 µM
[12] = target: T2, Serine/threonine-protein kinase PAK 1; assay: Binding affinity to CM5 chip-immobilized recombinant PAK1 (unknown origin) assessed as dissociation constant by SPR analysis
MDA-MB-231 [13] = assay: Induction of apoptosis in human MDA-MB-231 cells assessed as early apoptotic cells at 2.5 to 10 uM incubated for 12 hrs by Annexin V-FITC/PI staining based flow cytometry (reference value: 1.70 %); format: functional; settings: dose 2.5-10 µM
[14] = target: T2, Serine/threonine-protein kinase PAK 1; assay: In vivo inhibition of PAK1 in human MDA-MB-231 cells xenografted in BALB/c mouse at 20 mg/kg, ip qd for 12 days by IHC analysis; format: functional, organism-based; settings: time 12.0 day
MDA-MB-231 [15] = assay: Induction of apoptosis in human MDA-MB-231 cells xenografted in BALB/c mouse assessed as increase in Bax level at 20 mg/kg, ip qd for 12 days by Western blot analysis; format: functional, organism-based; settings: time 12.0 day
MDA-MB-231 [16] = assay: Induction of apoptosis in human MDA-MB-231 cells assessed as viable cells at 2.5 to 10 uM incubated for 24 hrs by Annexin V-FITC/PI staining based flow cytometry (reference value: 94.8 %); format: functional; settings: dose 2.5-10 µM
[17] = target: T2, Serine/threonine-protein kinase PAK 1; assay: Inhibition of PAK1 phosphorylation at S144 in human MDA-MB-231 cells incubated upto 48 hrs by Western blot analysis; format: cell-based
MDA-MB-231 [18] = assay: Inhibition of cell migration in human MDA-MB-231 cells assessed as increase in E-Cadherin level by Western blot analysis; format: functional, cell-based; settings: time <= 48.0 hrs, TDE = time-dependent effect
MDA-MB-231 [19] = assay: Induction of apoptosis in human MDA-MB-231 cells assessed as necrotic cells at 2.5 to 10 uM incubated for 24 hrs by Annexin V-FITC/PI staining based flow cytometry (reference value: 1.08 %); format: functional; settings: dose 2.5-10 µM
[20] = target: T1, von Hippel-Lindau disease tumor suppressor/Serine/threonine-protein kinase PAK 1; assay: PROTAC activity at VHL/PAK1 in human MDA-MB-231 cells assessed as induction of protein degradation incubated for 48 hrs in presence of Bortezomib by Western blot analysis; format: cell-based
MDA-MB-231 [21] = assay: Antiproliferative activity against human MDA-MB-231 cells assessed as decrease in green fluorescence by EdU staining based analysis; format: functional, cell-based
[22] = target: T2, Serine/threonine-protein kinase PAK 1; assay: In vivo inhibition of PAK1 phosphorylation at S199 in human MDA-MB-231 cells xenografted in BALB/c mouse at 20 mg/kg, ip qd for 12 days by Western blot analysis; format: functional, organism-based; settings: time 12.0 day
[23] = target: Serine/threonine-protein kinase PAK 3 (Homo sapiens) (UniProt O75914); assay: Inhibition of PAK3 in human MDA-MB-231 cells incubated upto 48 hrs by Western blot analysis; format: cell-based
MDA-MB-231 [24] = assay: Inhibition of cell proliferation of human MDA-MB-231 cells at 2.5 uM by EdU staining based analysis; format: functional
MDA-MB-231 [25] = assay: Induction of apoptosis in human MDA-MB-231 cells xenografted in BALB/c mouse assessed as increase in E-Cadherin level at 20 mg/kg, ip qd for 12 days by Western blot analysis; format: functional, organism-based; settings: time 12.0 day
[26] = target: T2, Serine/threonine-protein kinase PAK 1; assay: Inhibition of PAK1 in human MDA-MB-231 cells at 5 uM incubated for 24 hrs by immunofluorescence based analysis; format: cell-based
MDA-MB-231 [27] = assay: Induction of apoptosis in human MDA-MB-231 cells assessed as early apoptotic cells at 2.5 to 10 uM incubated for 48 hrs by Annexin V-FITC/PI staining based flow cytometry (reference value: 1.70 %); format: functional; settings: dose 2.5-10 µM
MDA-MB-231 [28] = assay: Induction of apoptosis in human MDA-MB-231 cells xenografted in BALB/c mouse assessed as increase in PARP level at 20 mg/kg, ip qd for 12 days by Western blot analysis; format: functional, organism-based; settings: time 12.0 day
MDA-MB-231 [29] = assay: Induction of apoptosis in human MDA-MB-231 cells assessed as increase in cleaved caspase-8 level at 2.5 to 10 uM incubated upto 48 hrs by Western blot analysis; format: functional, cell-based; settings: dose 2.5-10 µM
MDA-MB-231 [30] = assay: Induction of apoptosis in human MDA-MB-231 cells assessed as early apoptotic cells at 2.5 uM incubated for 12 to 48 hrs by Annexin V-FITC/PI staining based flow cytometry (reference value: 1.12 %); format: functional; settings: time 12-48 hrs
[31] = target: T2, Serine/threonine-protein kinase PAK 1; assay: Inhibition of PAK1 in human MDA-MB-231 cells incubated upto 48 hrs by Western blot analysis; format: cell-based
MDA-MB-231 [32] = assay: Inhibition of cell migration in human MDA-MB-231 cells assessed as decrease in MMP-2 level by Western blot analysis; format: functional, cell-based; settings: time <= 48.0 hrs, TDE = time-dependent effect
MDA-MB-231 [33] = assay: Induction of apoptosis in human MDA-MB-231 cells assessed as late apoptotic cells at 2.5 to 10 uM incubated for 48 hrs by Annexin V-FITC/PI staining based flow cytometry (reference value: 2.46 %); format: functional; settings: dose 2.5-10 µM
[34] = target: T2, Serine/threonine-protein kinase PAK 1; assay: Binding affinity to CM5 chip-immobilized recombinant PAK1 (unknown origin) by SPR analysis
MDA-MB-231 [35] = assay: Induction of apoptosis in human MDA-MB-231 cells assessed as decrease in Bcl-2 level at 2.5 to 10 uM incubated upto 48 hrs by Western blot analysis; format: functional, cell-based; settings: dose 2.5-10 µM

T2 sequence (Q13153 whole entry): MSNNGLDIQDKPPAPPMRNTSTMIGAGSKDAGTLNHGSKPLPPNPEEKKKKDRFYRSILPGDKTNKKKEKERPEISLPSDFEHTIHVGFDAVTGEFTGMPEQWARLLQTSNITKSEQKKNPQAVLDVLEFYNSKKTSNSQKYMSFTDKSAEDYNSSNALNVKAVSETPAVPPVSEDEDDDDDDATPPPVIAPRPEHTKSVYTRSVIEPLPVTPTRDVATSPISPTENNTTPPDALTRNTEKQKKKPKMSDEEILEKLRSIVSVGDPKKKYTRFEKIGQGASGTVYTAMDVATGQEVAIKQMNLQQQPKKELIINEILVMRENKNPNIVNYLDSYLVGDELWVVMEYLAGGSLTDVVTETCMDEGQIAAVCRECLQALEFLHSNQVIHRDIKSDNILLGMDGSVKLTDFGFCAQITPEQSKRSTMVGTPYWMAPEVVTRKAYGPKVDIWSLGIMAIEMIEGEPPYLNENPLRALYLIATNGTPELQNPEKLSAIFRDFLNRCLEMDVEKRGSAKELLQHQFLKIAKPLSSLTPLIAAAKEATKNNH
T1 sequence (Q13153 2-545 limits assumed): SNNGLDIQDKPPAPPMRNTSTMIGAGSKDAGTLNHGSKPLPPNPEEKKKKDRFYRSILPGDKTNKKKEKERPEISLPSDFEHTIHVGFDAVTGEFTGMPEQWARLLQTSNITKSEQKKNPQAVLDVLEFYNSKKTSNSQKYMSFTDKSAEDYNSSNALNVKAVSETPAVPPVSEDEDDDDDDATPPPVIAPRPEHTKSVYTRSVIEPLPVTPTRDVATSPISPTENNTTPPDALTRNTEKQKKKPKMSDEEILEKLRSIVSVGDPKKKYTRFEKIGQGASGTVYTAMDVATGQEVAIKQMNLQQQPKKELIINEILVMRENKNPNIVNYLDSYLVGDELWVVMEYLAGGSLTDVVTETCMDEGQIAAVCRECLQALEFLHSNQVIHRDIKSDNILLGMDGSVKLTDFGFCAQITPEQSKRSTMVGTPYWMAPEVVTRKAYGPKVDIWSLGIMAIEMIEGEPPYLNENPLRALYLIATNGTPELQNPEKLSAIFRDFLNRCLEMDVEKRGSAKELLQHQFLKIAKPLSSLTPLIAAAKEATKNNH
T1 sequence (P40337 whole entry partner): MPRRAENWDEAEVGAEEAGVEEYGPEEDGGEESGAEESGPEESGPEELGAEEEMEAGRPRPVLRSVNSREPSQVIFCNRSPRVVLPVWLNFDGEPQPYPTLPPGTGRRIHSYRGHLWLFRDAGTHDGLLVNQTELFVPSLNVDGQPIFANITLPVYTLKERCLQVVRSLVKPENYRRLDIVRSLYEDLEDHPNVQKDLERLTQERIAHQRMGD
Serine/threonine-protein kinase PAK 3 (Homo sapiens), sequence (O75914 whole entry, looked up): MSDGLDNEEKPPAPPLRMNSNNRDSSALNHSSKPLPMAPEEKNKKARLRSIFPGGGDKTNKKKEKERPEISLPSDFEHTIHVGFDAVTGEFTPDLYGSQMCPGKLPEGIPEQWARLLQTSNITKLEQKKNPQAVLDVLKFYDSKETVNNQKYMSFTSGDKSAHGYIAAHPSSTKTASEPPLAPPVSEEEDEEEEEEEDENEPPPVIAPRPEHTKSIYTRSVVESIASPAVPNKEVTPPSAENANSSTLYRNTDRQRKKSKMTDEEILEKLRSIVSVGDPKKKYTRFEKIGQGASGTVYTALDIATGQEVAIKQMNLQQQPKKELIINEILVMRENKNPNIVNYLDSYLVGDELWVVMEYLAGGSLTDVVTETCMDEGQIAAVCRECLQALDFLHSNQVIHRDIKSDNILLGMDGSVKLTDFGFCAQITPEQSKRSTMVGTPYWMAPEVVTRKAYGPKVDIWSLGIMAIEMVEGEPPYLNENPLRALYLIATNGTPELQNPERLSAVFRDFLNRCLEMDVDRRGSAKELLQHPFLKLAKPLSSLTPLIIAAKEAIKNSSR

In the case of Cc1ncsc1-c1ccc([C@H](C)NC(=O)[C@@H]2C[C@@H](O)CN2C(=O)[C@@H](NC(=O)CCc2cn(CCCCCCCn3c(=O)c(-c4ccc(Cl)cc4Cl)cc4cnc(NC5CC5)nc43)nn2)C(C)(C)C)cc1, the fold change (FC) [1] is reported as 0.29, the Activity (MDA-MB-231 [2]) is reported as 86.3% and the inhibition (MDA-MB-231 [3]) is reported as “Active”. The inhibition (MDA-MB-231 [4]) was “Active”, the Activity (MDA-MB-231 [5]) was “Active” and the inhibition [6] was “Active”. The Activity (MDA-MB-231 [7]) was “Active”, the Activity [8] was “Active” and the inhibition (MDA-MB-231 [9]) was “Tde”. The Activity (MDA-MB-231 [10]) was “Active”, the Activity (MDA-MB-231 [11]) was “Active” and the Kd [12] was 16.2 µM. The Activity (MDA-MB-231 [13]) was 4.37%, the inhibition [14] was “Active” and the Activity (MDA-MB-231 [15]) was “Active”. The Activity (MDA-MB-231 [16]) was 76.6%, the inhibition [17] was “Active” and the inhibition (MDA-MB-231 [18]) was “Tde”. For the same molecule, the Activity (MDA-MB-231 [19]) was 4.92%, the Activity [20] was “inactive” and the Activity (MDA-MB-231 [21]) was “Active”. The inhibition [22] was “Active”, the inhibition [23] was “inactive” and the inhibition (MDA-MB-231 [24]) was “Active”. For the same molecule, the Activity (MDA-MB-231 [25]) was “Active”, the inhibition [26] was “Active” and the Activity (MDA-MB-231 [27]) was 37.9%. For the same molecule, the Activity (MDA-MB-231 [28]) was “Active”, the Activity (MDA-MB-231 [29]) was “Active” and the Activity (MDA-MB-231 [30]) was 5.62%. The inhibition [31] was “Active”, the inhibition (MDA-MB-231 [32]) was “Tde” and the Activity (MDA-MB-231 [33]) was 4.94%. The Activity [34] was “Dose-Dependent Effect” and the Activity (MDA-MB-231 [35]) was “Active”.

— ChEMBL document CHEMBL6127034, “Design, synthesis and biological evaluation of a novel PAK1 degrader for the treatment of triple negative breast cancer” (Bioorg Med Chem, 2024)
